Experimental findings from patent publication US11786517B2, “Methods of treatment using a JAK inhibitor compound” (THERAVANCE BIOPHARMA R&D IP, LLC, priority 2017, dated 2023) are described below.

The test system of data set [1] is IFNγ induced pSTAT1 in rabbit retina/choroid tissue. Kind of data set: Pharmacodynamic assay: inhibition of IFNγ-induced pSTAT1 in rabbit eyes. The class given is in vivo, New Zealand White rabbits. The following applies: 0.9 mg intravitreal suspension, 1 week pre-treatment. On the procedure:
The ability of a single intravitreal administration of test compound to inhibit interferon-gamma (IFNγ) induced phosphorylation of STAT1 protein (pSTAT1) was measured in rabbit retina/choroid tissue.
A suspension formulation was prepared by combining compound 1 of Example 1, with 0.5% hydroxypropyl methylcellulose (HPMC E5), 0.02% Tween 80, and 9 mg/mL sodium chloride in purified water to attain a target concentration of 20 mg/mL.
Male, New Zealand White rabbits (Liveon Biolabs, India) were used for the studies. Animals were acclimated after arrival at the research facilities (Jubilant Biosys Ltd., India). Each rabbit was given a total of two intravitreal (IVT) injections with a total dose volume of 50 μL per eye. The first IVT injection (45 μL per eye) delivered 0.9 mg of test compound or vehicle. One week later, a second IVT injection (5 μL per eye) delivered IFNγ (1 μg/eye; stock solution 1 mg/mL; Kingfisher Biotech) or vehicle for the induction of IP-10. […]
Tissues were collected 2 hours after the second IVT injection with IFNγ. Retina/choroid tissues (R/C) were collected and homogenized, and pSTAT1 levels were measured by quantitative Western Blot on the ProteinSimple WES instrument. The percent inhibition of IFNγ-induced pSTAT1 was calculated in comparison to the vehicle/vehicle and vehicle/IFNγ groups.

The nature of data set [2]: Ocular pharmacokinetics in rabbit eyes. The format is in vivo, New Zealand white rabbits. On the procedure: The objective of this assay was to determine the pharmacokinetics of the test compound in rabbit ocular tissues.
The compound of the invention, 5-ethyl-2-fluoro-4-(3-(5-(1-methylpiperidin-4-yl)-4,5,6,7-tetrahydro-1H-imidazo[4,5-c]pyridin-2-yl)-1H-indazol-6-yl)phenol (1) was dissolved in either 10% 2-hydroxypropyl-β-cyclodextrin to attain a target concentration of 4 mg/mL or in purified water to attain a target concentration of 1 mg/mL. Bilateral intravitreal injection (50 μL/eye) of the solution of test compound was administered to New Zealand white rabbits in two dose groups, 200 μg/eye and 50 μg/eye, respectively, for the cyclodextrin and water vehicle formulations, respectively. The test compound concentration was measured in ocular tissues: vitreous, aqueous, retina/choroid and iris-ciliary body at pre-determined time points post injection (30 min, 4 h, 1 d, 3 d, 7 d, 14 d). Two rabbits (four eyes) were dosed for each time point.
A suspension formulation was prepared by combining crystalline compound 1 of Example 1 with 0.5% hydroxypropyl methylcellulose (HPMC E5)+0.02% Tween 80 to attain a target concentration of 10 mg/mL. Bilateral intravitreal injection (50 μL/eye) of the suspension of test compound was administered to New Zealand white rabbits (500 μg/eye). The test compound concentration was measured in ocular tissues as in the […] at 30 min, 2 wks, 4 wks, 6 wks, and 8 wks post injection. […] The behavior is consistent with the solubility of compound 1 in the vehicle and the ocular pharmacokinetic behavior in the solution formulation. The drug concentration in plasma was measured and found to be at least 3 orders of magnitude lower than the concentration in vitreous tissue.

For the compound `CCc1cc(O)c(F)cc1-c1ccc2c(-c3nc4c([nH]3)CCN(C3CCN(C)CC3)C4)n[nH]c2c1` [Example 1, Crystalline hydrate of 5-ethyl-2-fluoro-4-(3-(5-(1-methylpiperidin-4-yl)-4,5,6,7-tetrahydro-1H-imidazo[4,5-c]pyridin-2-yl)-1H-indazol-6-yl)phenol], the “inhibition of IFNγ-induced pSTAT1” value in data set [1] is recorded as 85%. In addition, the “drug concentration in plasma lower than concentration in vitreous tissue” value in data set [2] (intravitreal injection, listed as compound 1 of Example 1) is reported as “at least 3 orders of magnitude”. In addition, the “clearance rate, linear decrease in drug concentration in the vitreous” value in data set [2] (intravitreal suspension 500 μg/eye, 30 min to 6 weeks) was “approximately 3 μg/mL/day”.
